Experimental data: patent US7786042B2, “Fluridone as an anti-inflammatory agent” (Universita' Degli Studi Di Genova, priority 2005, dated 2010)
Entries after “also recorded” stand apart in the source; their conditions may differ.

How the values were obtained:
[1] = tested on: murine microglial cell line N9; experiment: ABA content in murine microglia N9 by HPLC-MS; type: cell-based; settings: N9 cells; fluridone 50 μM together with LPS
Protocol: Cells from the murine microglial cell line N9 were pre-incubated with or without 50 μM fluridone for 2 hours and then stimulated with 100 ng/ml lipopolysaccharide (LPS) for 24 hours. The ABA content was measured by HPLC-MS (see Materials and Methods) and was compared with that of untreated cells (control). The results are the mean from 2 experiments.
N9 cells were seeded (25×10^6/flask) in IMDM medium containing fetal calf serum, incubated for 3 h at 37° C. with or without 50 μM fluridone and then incubated for 3 days in the absence or in the presence of 200 ng/ml lipopolysaccharide (LPS). Cells were then recovered, washed in phosphate-buffered saline isotonic solution at pH 7.4 (PBS), resuspended in 0.5 ml water and sonicated. […] A small aliquot of the extract was used to determine radioactivity (with a β-counter), allowing the calculation of the percentage of ABA recovery after-extraction. The rest of the extract was analyzed on an Agilent 1100 capillary chromatography system, with a diode array detector, equipped with a Waters Atlantis™ dC18 150×1 mm column, particle size 3 μm, coupled to an Agilent 1100 series LC/MSD Trap mass spectrometer, equipped with an orthogonal geometry electrospray source and ion trap analyser. […]

[2] = tested on: human granulocytes and lymphocytes; experiment: ABA content in stimulated human granulocytes and lymphocytes (immunoassay for ABA); type: cell-based; settings: fluridone 10-50 μM
Protocol: The increase of the intracellular ABA concentration induced by f-MLP in granulocytes and by PMA in lymphocytes is inhibited by the addition of fluridone at micromolar concentrations (ranging between 10 and 50 μM) during cell incubation with the pro-inflammatory stimuli.

[3] = tested on: human lymphocytes and monocytes; experiment: Cell viability by Trypan blue exclusion, human cells; type: cell-based; settings: fluridone 50 μM
Protocol: Inhibition of proliferation is not due to fluridone toxicity since the percentage of viable cells (excluding the dye Trypan blue) was similar in the cultures incubated with fluridone compared to controls.
(§1) A similar effect (90% inhibition) is produced by fluridone also on the LPS-induced TNF-α production in both cell types (FIGS. 7 A and B). In all these cases, no toxicity of fluridone on the cells was observed, as evaluated by the ability of excluding the dye Trypan blue.

[4] = tested on: murine macrophages RAW 264.7; experiment: Cell viability by Trypan blue exclusion, RAW 264.7; type: cell-based; settings: RAW 264.7, fluridone 50 μM
Description: as §1

[5] = tested on: rats; settings: oral administration; cited from earlier work
[6] = tested on: laboratory animals (mice, rats, dogs, fish and birds); settings: even at high concentrations; cited from earlier work
[7] = cited from earlier work
[8] = tested on: human granulocytes; experiment: GDP-ribosyl cyclase activity in granulocytes; type: cell-based; settings: ABA 0.2 to 200 μM; detectable after 5 min
Protocol: Panel A. GDP-ribosyl cyclase activity has been measured in granulocytes in the presence of increasing ABA concentrations, added together with the cyclase substrate NGD^+. The results are expressed as cyclase activity relative to control cells, incubated in the absence of ABA (mean ±SD from 5 determinations). Panel B. The intracellular concentration of cADPR was measured by enzymatic cycling assay (Materials and Methods) on granulcoytes incubated with 20 μM ABA for the periods of time indicated. The results are expressed as [cADPR]i relative to control cells, incubated without ABA (n=2).
Granulocytes were resuspended in HBSS (60×10^6/ml) and cyclase activity was measured by adding the substrate NGD^+ (a NAD^+ analogue, which product cGDPR is fluorescent) at the concentration of 0.2 mM together with increasing concentrations of ABA. At various times (0, 5, 15, 60 and 120 min) 100 μl-aliquots were withdrawn and centrifuged (5,000×g for 15 s) and supernatants were deproteinized with 2.5% (v/v) trichloroacetic acid. The cGDPR content was estimated by HPLC analysis, as described in (Guida, FEBS 1995).

[9] = tested on: human granulocytes; experiment: ROS production by granulocytes (cytochrome c assay); type: cell-based; settings: ABA 0.2-20 μM
Protocol: Granulocytes were resuspended at 5×10^6/ml in HBSS and 225 μl of the cell suspension were added to 50 μl of 0.2 mM cytochrome c and were incubated for 30 min at 37° C. in the absence (control) or in the presence of 250 nM or 20 μM ABA, the latter concentration without or with 1 mM EDTA, 20 mM nicotinamide or 0.1 mM 8-Br-cADPR. The amount of ROS (panel A) or of NO (panel B) in the cell supernatant was measured as described in Materials and Methods. The results are expressed as the production relative to control cells, not stimulated with ABA, and are the mean ±SD from 5 experiments.
Release of superoxide (O2^−) by human granulocytes was quantified by a spectrophotometric assay of cytochrome c reduction (Cohen, J Clin Invest 1978). Granulocytes were resuspended in HBSS (at 5×10^6 cells/ml) and 225 μl of the cell suspension was incubated for 30 min at 37° C. with 50 μl cytochrome c (0.2 mM) in the absence (control) or in the presence of ABA at different concentrations. Then, cells were centrifuged at 5,000×g for 15 s and the absorbance of the supernatants was recorded at 550 nm (λmax for reduced cytocrome c).

[10] = tested on: human granulocytes; experiment: Chemotaxis and chemokinesis of granulocytes; type: cell-based; settings: ABA 0.2-20 μM
[11] = tested on: murine macrophages RAW 264.7; experiment: COX-2 expression in LPS-stimulated RAW 264.7; type: cell-based; settings: exogenous ABA 10-20 μM added to fluridone-treated cultures
Protocol: Murine macrophages from the RAW 264.7 cell line were stimulated with 10 μM ABA or with 100 ng/ml lipopolysaccharide (LPS) for 6 hours, after pre-incubation with 50 μM fluridone for 3 hours.

[12] = tested on: murine microglia cell line N9; experiment: Chemokinesis of murine microglia N9; type: cell-based; settings: ABA 0.2-20 μM
Protocol: Assays were performed using 96-well ChemoTx system microplates with a 3-μm pore size polycarbonate filter (NeuroProbe Inc., Gaithersburg, USA). Cells (granulocytes or murine microglia) were resuspended at 10^7/ml in HBSS, PBS and 5% albumin, 39:16:1 (chemotaxis buffer, CB). In order to evaluate the chemoattractant effect of ABA, hormone concentrations ranging from 50 nM to 20 μM were added in CB in the bottom wells and 25 μl cell suspensions were placed on top of the filter. To evaluate a possible stimulatory effect of ABA on spontaneous cell movements (chemokinesis), cells were pre-incubated with or without 20 μM ABA, then washed and placed on top of the filter, in contact with CB. Plates were incubated at 37° C. for 60 min and transmigrated cells were recovered and quantified by fluorimetric assay with Cytox Green. The number of transmigrated cells was calculated by comparison of the measured fluorescence with that of a standard curve, obtained by directly placing a serial dilution of cells in the bottom wells. The results of the chemotaxis experiments are expressed as “chemotaxis index” (CI): CI=number of cells migrated towards chemoattractant/number of cells migrated towards CB
The results of the chemokinesis experiments are expressed as number of ABA pre-treated cells migrated through the filter compared to control cells (not treated with ABA).

SMILES	reduction of the LPS-induced increase of intracellular ABA content [1] [%]	inhibition of the increase of intracellular ABA concentration ([2]; granulocytes, f-MLP-induced) [%]	inhibition of the increase of intracellular ABA concentration ([2]; lymphocytes, PMA-induced) [%]	toxicity on the cells (Trypan blue exclusion) ([3]; human monocytes)	percentage of viable cells (excluding Trypan blue) compared to controls ([3]; lymphocyte cultures)	toxicity on the cells (Trypan blue exclusion) [4]	LD50 [5] [g/kg]	toxic, mutagenic, teratogenic or cancerogenic effects [6]	maximum permissible intake allowed in humans ([7]; from chronic toxicity in rats fed with fluridone, dose reduction of two logarithms) [mg/kg/day]	ADI (acceptable daily intake) ([7]; humans) [mg/Kg/die]	GDP-ribosyl cyclase activity [8]	production of reactive oxygen species (ROS) [9]	chemokinesis [10]	chemotaxis (chemoattractant effect) [10]	increase of COX-2 expression compromised by fluridone [11]	chemokinesis [12]
Cn1cc(-c2ccccc2)c(=O)c(-c2cccc(C(F)(F)F)c2)c1 [Fluridone, 1-methyl-3-phenyl-5-(α,α,α-trifluoro-m-tolyl)-4-pyridone]	60	40	50	no toxicity	similar	no toxicity	> 10	absence of toxic, mutagenic, teratogenic or cancerogenic effects	4.8	0.08						
CC1=CC(=O)CC(C)(C)[C@@]1(O)/C=C/C(C)=C\C(=O)O (racemic) [ABA, (±)-cis, trans ABA]											dose-dependent stimulation	stimulation; also recorded: ↑ROS release	significant increase; also recorded: ↑chemokinesis	behaves as a chemoattractant; also recorded: ↑chemotaxis	partly restores	increase; also recorded: ↑chemokinesis
